According to patent publication US10479795B2 (Incyte Corporation, priority 2016, dated 2019):
Where a name gives a salt, the structure may show the parent alone.

Biological target: PI3Kγ (p110γ) Recombinant Human Protein (Homo sapiens (Human), UniProt P48736)
Experiment: PI3K-γ Scintillation Proximity Assay
Type: biochemical
Conditions: read-out: PI3Kγ IC50
Description: [γ-^33P]ATP (10 mCi/mL) and Wheat Germ Agglutinin (WGA) YSi SPA Scintillation Beads was purchased from Perkin-Elmer (Waltham, Mass.). […] PI3Kγ (p110γ) Recombinant Human Protein was purchased from Life technology (Grand Island, N.Y.). ATP, MgCl2, DTT, EDTA, MOPS and CHAPS were purchased from Sigma-Aldrich (St. Louis, Mo.).
The kinase reaction was conducted in polystyrene 384-well Greiner Bio-one white plate from Thermo Fisher Scientific in a final volume of 25 μL. Inhibitors were first diluted serially in DMSO and added to the plate wells before the addition of other reaction components. The final concentration of DMSO in the assay was 2%. The PI3Kγ assay was carried out at room temperature in 20 mM MOPS, pH 6.7, 10 mM MgCl2, 5 mM DTT and CHAPS 0.03%. Reactions were initiated by the addition of ATP, the final reaction mixture consisted of 20 μM PIP2, 2 μM ATP, 0.5 μCi [γ-^33P] […] The final concentration of SPA beads is 1.0 mg/mL. After the plate sealing, plates were shaken overnight at room temperature and centrifuged at 1500 rpm for 10 min, the radioactivity of the product was determined by scintillation counting on Topcount (Perkin-Elmer). IC50 determination was performed by fitting the curve of percent of the solvent control activity versus the log of the inhibitor concentration using the GraphPad Prism 6.0 software.

Sequence of PI3Kγ (p110γ) Recombinant Human Protein (P48736 whole entry): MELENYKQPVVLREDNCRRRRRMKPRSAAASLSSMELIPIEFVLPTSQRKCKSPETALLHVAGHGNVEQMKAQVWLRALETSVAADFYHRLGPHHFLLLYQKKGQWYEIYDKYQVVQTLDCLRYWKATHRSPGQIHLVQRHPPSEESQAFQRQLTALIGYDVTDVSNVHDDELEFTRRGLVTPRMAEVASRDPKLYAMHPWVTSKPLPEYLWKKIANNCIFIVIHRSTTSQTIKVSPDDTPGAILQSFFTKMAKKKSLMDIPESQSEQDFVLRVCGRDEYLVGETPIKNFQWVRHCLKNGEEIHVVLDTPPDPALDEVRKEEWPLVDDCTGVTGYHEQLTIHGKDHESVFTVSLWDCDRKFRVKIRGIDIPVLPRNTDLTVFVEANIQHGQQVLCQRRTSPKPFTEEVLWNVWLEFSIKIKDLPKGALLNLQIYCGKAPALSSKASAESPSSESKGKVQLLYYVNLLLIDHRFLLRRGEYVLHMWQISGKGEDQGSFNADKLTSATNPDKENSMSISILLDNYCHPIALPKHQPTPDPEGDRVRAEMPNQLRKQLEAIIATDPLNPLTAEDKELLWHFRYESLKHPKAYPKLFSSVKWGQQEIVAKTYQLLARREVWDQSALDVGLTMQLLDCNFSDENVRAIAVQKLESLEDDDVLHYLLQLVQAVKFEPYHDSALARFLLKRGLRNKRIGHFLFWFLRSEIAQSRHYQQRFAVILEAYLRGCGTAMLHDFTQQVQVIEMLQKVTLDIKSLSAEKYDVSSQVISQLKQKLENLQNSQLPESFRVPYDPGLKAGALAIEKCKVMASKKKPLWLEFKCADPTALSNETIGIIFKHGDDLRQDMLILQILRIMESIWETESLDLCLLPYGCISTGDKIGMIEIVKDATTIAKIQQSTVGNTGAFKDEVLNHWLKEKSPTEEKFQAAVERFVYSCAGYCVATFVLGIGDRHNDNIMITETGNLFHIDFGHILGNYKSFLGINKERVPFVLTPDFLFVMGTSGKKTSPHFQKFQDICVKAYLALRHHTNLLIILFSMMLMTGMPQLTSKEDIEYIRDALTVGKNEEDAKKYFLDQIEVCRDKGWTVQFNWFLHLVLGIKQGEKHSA

Row | Compound | IC50
1 | Cc1ccc(S(=O)(=O)N2CC3(CCOC3)C2)cc1-c1cnc2c(N)ncnn12 [Example 220, 7-(5-((6-oxa-2-azaspiro[3.4]octan-2-yl)sulfonyl)-2-methylphenyl)imidazo[2,1-f][1,2,4]triazin-4-amine] | < 100 nM
2 | Cc1ccc(S(=O)(=O)NCc2cnccn2)cc1-c1cnc2c(N)nc(C(F)(F)F)nn12 [Example 358, 3-(4-amino-2-(trifluoromethyl)imidazo[2,1-f][1,2,4]triazin-7-yl)-4-methyl-N-(pyrazin-2-ylmethyl)benzenesulfonamide] | < 100 nM
3 | Cc1ccc(S(=O)(=O)N2CCN(C)C(=O)C2)cc1-c1cnc2c(N)ncnn12 [Example 228, 4-((3-(4-aminoimidazo[2,1-f][1,2,4]triazin-7-yl)-4-methylphenyl)sulfonyl)-1-methylpiperazin-2-one] | < 100 nM
4 | CC(=O)N1CCN(S(=O)(=O)c2ccc(C)c(-c3cnc4c(N)ncnn34)c2)CC1 [Example 229, 1-(4-((3-(4-aminoimidazo[2,1-f][1,2,4]triazin-7-yl)-4-methylphenyl)sulfonyl)piperazin-1-l)ethan-1-one] | < 100 nM
5 | Cc1ccc(S(=O)(=O)N2CCN(c3ncccn3)CC2)cc1-c1cnc2c(N)ncnn12 [Example 230, 7-(2-methyl-5-((4-(pyrimidin-2-yl)piperazin-1-yl)sulfonyl)phenyl)imidazo[2,1-f][1,2,4]triazin-4-amine] | < 100 nM
6 | Cc1ccc(S(=O)(=O)NC2(C)CCN(C3CC(C#N)C3)CC2)cc1-c1cnc2c(N)nc(C(F)(F)F)nn12 (stereo not shown) [Example 529, 3-(4-Amino-2-(trifluoromethyl)imidazo[2,1-f][1,2,4]triazin-7-yl)-N-(1-(3-cyanocyclobutyl)-4-methylpiperidin-4-yl)-4-methylbenzenesulfonamide trifluoroacetate] | 100 to 500 nM
7 | Cc1ccc(S(=O)(=O)N2CCCn3nccc32)cc1-c1cnc2c(N)ncnn12 [Example 215, 7-(5-((6,7-dihydropyrazolo[1,5-a]pyrimidin-4(5H)-yl)sulfonyl)-2-methylphenyl)imidazo[2,1-f][1,2,4]triazin-4-amine] | < 100 nM
8 | Cc1ccc(S(=O)(=O)NC(C)(C)CN2CCCC2)cc1-c1cnc2c(N)ncnn12 [Example 239, 3-(4-aminoimidazo[2,1-f][1,2,4]triazin-7-yl)-4-methyl-N-(2-methyl-1-(pyrrolidin-1-yl)propan-2-yl)benzenesulfonamide] | 500 to 2000 nM
9 | Cc1ccc(S(=O)(=O)N2CCn3ncc(C#N)c3C2)cc1-c1cnc2c(N)ncnn12 [Example 240, 5-((3-(4-aminoimidazo[2,1-f][1,2,4]triazin-7-yl)-4-methylphenyl)sulfonyl)-4,5,6,7-tetrahydropyrazolo[1,4-a]pyrazine-3-carbonitrile] | < 100 nM

Continued, values first:

Row | IC50 | Compound
10 | < 100 nM | CC(=O)N1CCC(c2cn3c(-c4cc(S(C)(=O)=O)ccc4C)cnc3c(N)n2)CC1 [Example 537, 1-(4-(8-Amino-3-(2-methyl-5-(methylsulfonyl)phenyl)imidazo[1,2-a]pyrazin-6-yl)piperidin-1-yl)ethan-1-one trifluoroacetate]
11 | 100 to 500 nM | COC(=O)N1CCC(c2cn3c(-c4cc(S(C)(=O)=O)ccc4C)cnc3c(N)n2)C1 (stereo not shown) [Example 538, Methyl 3-(8-amino-3-(2-methyl-5-(methylsulfonyl)phenyl)imidazo[1,2-a]pyrazin-6-yl)pyrrolidine-1-carboxylate trifluoroacetate]
12 | < 100 nM | Cc1ccc(S(=O)(=O)NC23C4C5C2C2C3C4C52C(C)(C)O)cc1-c1cnc2c(N)ncnn12 (stereo not shown) [Example 535, 3-(4-Aminoimidazo[2,1-f][1,2,4]triazin-7-yl)-N-(4-(2-hydroxypropan-2-yl)cuban-1-yl)-4-methylbenzenesulfonamide trifluoroacetate]
13 | < 100 nM | Cc1ccc(S(=O)(=O)Nc2ccc(C(=O)NCC(F)(F)F)nc2)cc1-c1cnc2c(N)ncnn12 [Example 539, 5-((3-(4-Aminoimidazo[2,1-f][1,2,4]triazin-7-yl)-4-methylphenyl)sulfonamido)-N-(2,2,2-trifluoroethyl)picolinamide trifluoroacetate]
